Results: US11623931B2, “Bicyclic compounds for diagnosis and therapy” (AC IMMUNE SA, priority 2016, dated 2023)

Columns and labels:
[1] = target: T1, aSyn aggregates on PD sections (Homo sapiens, UniProt P37840); experiment: Assay 1 (fluorescence based assay): direct staining of human Parkinson's disease brain sections; type: binding; design: key: − (No); +/− (very weak); + (weak); ++ (good); +++ (strong); conditions: staining intensity; compound 100 μM, frozen amygdala sections, PD Braak stage V-VI
T1 construct: 20 μm frozen sections from amygdala were purchased from an external provider (Tissue Solutions Ltd.); tissue Tissue Solutions Ltd; host or cells: human PD amygdala, frozen sections, Braak stage V-VI
Excerpt: Assay 1 (Fluorescence Based Assay):
(§1) Direct Staining of Compounds of this Invention to Human Parkinson's Disease Brain Sections
(§2) 20 μm frozen sections from amygdala were purchased from an external provider (Tissue Solutions Ltd.). Donors were diagnosed with PD, Braak stage V-VI (Braak et al., Neurobiol. Aging, 2003, 24, 197-211) and thus with confirmed aSyn pathology. PD donors, Braak stage V-VI with mixed pathology, containing aSyn aggregates as well as Aβ plaques, were also used in this assay. Sections were kept at −80° C. until start of the experiment.
(§3) Brain sections were encircled with pap pen liquid blocker to reduce the volume of solution for the different incubations. Sections were fixed for 15 min at 4° C. with 4% paraformaldehyde and washed three times for 5 minutes with PBS (phosphate buffered saline) at room temperature. Test compounds were incubated on the sections at 100 μM in 50% ethanol in water for 30 min at room temperature, followed by three washes of 5 minutes with PBS. Sections were then saturated and permeabilized in blocking buffer (PBS, 10% NGS, 0.25% Triton) for 1 hour at room temperature and then incubated for 2 hours at room temperature with the primary antibodies against aSyn: aSyn-211 (SantaCruz Biotechnology sc-12767) or aSyn-pS129 (Abcam AB51253), and primary antibody against AR, 4G8, (Covance, SIG-39220). All primary antibodies diluted 1/250 in PBS, 5% NGS, 0.25% Triton. After three washes in PBS, the sections were incubated for 30 minutes at room temperature with a secondary anti-mouse antibody labeled with AlexaFluor555 (Invitrogen A21422) or anti-rabbit antibody labeled with AlexaFluor555 (Invitrogen A21428) and further washed three times in PBS. To reduce auto-fluorescence of the tissue, the sections were incubated in a solution of 0.1% Sudan Black (Sigma 199664) in 70% ethanol for 15 min at room temperature, followed by four washes with PBS and mounted under cover slips using ProLong Gold Antifade reagent (Invitrogen P36930).
(§4) Sections were analyzed on the Nikon Eclipse Ti microscope to detect staining and imaged using Nikon DS-Fi2 camera and NIS-Element AR4.13.1 software.

[2] = test system: Aβ plaques on PD sections with mixed pathology; experiment: Assay 1 (fluorescence based assay): direct staining of PD brain sections with mixed pathology; type: binding, human; design: key: − (No); +/− (very weak); + (weak); ++ (good); +++ (strong); conditions: staining intensity; compound 100 μM, frozen amygdala sections, PD Braak stage V-VI with aSyn aggregates and Aβ plaques
Protocol: as §1, §2, §3, §4

Structure (SMILES) | Staining of aSyn aggregates on PD sections [1] | Staining of Aβ plaques on PD sections with mixed pathology [2]
F[C@H]1CCCN(c2ccc(-c3nc4nc(-c5cn[nH]c5)ccc4s3)cn2)C1 [Example 83] | +++ | −
Cn1cc(-c2ccc3sc(-c4ccc(N5CCC[C@H](F)C5)nc4)nc3n2)cn1 [Example 84] | ++ | +/−
Fc1nc(N2CCCC2)ccc1-c1nc2nc(-c3cn[nH]c3)ccc2s1 [Example 85] | +++ | −
Cn1cc(-c2ccc3sc(-c4ccc(N5CCCC5)nc4F)nc3n2)cn1 [Example 86] | ++ | −
Fc1nc(N2CCCC2)ccc1-c1nc2nc(-c3cccnc3)ccc2s1 [Example 87] | ++ | −
Cc1n[nH]c(C)c1-c1ccc2sc(-c3ccc(N4CCCC4)nc3F)nc2n1 [Example 88] | +++ | −
c1cncc(-c2ccc3sc(-c4ccc(N5CCCC5)nc4)nc3n2)c1 [Example 89] | ++ | −
F[C@@H]1CCN(c2ccc(-c3nc4nc(-c5cccnc5)ccc4s3)cn2)C1 [Example 90] | ++ | −
F[C@H]1CCN(c2ccc(-c3nc4nc(-c5cccnc5)ccc4s3)cn2)C1 [Example 91] | ++ | −
Cn1cncc1-c1ccc2sc(-c3ccc(N4CCCC4)nc3F)nc2n1 [Example 94] | +++ | −
Fc1nc(N2CCCC2)ccc1-c1nc2nc(-c3cnc[nH]3)ccc2s1 [Example 95] | ++ | −
Fc1nc(N2CCCC2)ccc1-c1nc2nc(-c3cc[nH]c3)ccc2s1 [Example 96] | ++ | +/−
Cn1nccc1-c1ccc2sc(-c3ccc(N4CCCC4)nc3F)nc2n1 [Example 97] | + | +/−
F[C@H]1CCCN(c2ccc(-c3nc4nc(-c5cncs5)ccc4s3)cn2)C1 [Example 98] | + | +/−
F[C@@H]1CCCN(c2ccc(-c3nc4nc(-c5cncs5)ccc4s3)cn2)C1 [Example 99] | ++ | +/−
F[C@@H]1CCCN(c2ccc(-c3nc4ncc(-c5cccnc5)cc4s3)cn2)C1 [Example 100] | ++ | ++
F[C@H]1CCCN(c2ccc(-c3nc4ncc(-c5cccnc5)cc4s3)cn2)C1 [Example 101] | ++ | +
Nc1ccc(-c2cc3ccc(-c4ccc(F)nc4)nc3s2)cn1 [Example 105] | +++ | ++

Structure (SMILES) | Staining of aSyn aggregates on PD sections [1] | Staining of Aβ plaques on PD sections with mixed pathology [2]
CNc1ccc(-c2cc3ccc(-c4ccc(F)nc4)nc3s2)cc1F [Example 106] | +++ | +++
Fc1ncccc1-c1ccc2sc(-c3ccc(N4CCCC4)nc3)nc2n1 [Example 108] | ++ | +/−
Fc1ccc(-c2ccc3sc(-c4ccc(N5CCCC5)nc4)nc3n2)cn1 [Example 109] | ++ | +/−
Fc1nc(N2CCCC2)ccc1-c1ccc2cc(-c3cncnc3)sc2n1 [Example 110] | + | +++
CNc1ccc(-c2cc3ccc(-c4ccc(N5CC[C@@H](F)C5)nc4)nc3s2)cc1F [Example 111] | +++ | +++
F[C@H]1CCN(c2ccc(-c3ccc4cc(-c5cccnc5)sc4n3)cn2)C1 [Example 112] | + | ++
CNc1ccc(-c2cc3ccc(-c4ccc(N5CC[C@H](F)C5)nc4)nc3s2)cc1F [Example 113] | + | ++
F[C@@H]1CCN(c2ccc(-c3ccc4cc(-c5cn[nH]c5)sc4n3)cn2)C1 [Example 114] | +++ | +++
O=C1NCCc2nc(-c3ccc(N4CC[C@H](F)C4)nc3)sc21 [Example 118] | + | +
O=C1NCCc2nc(N3CC[C@H](F)C3)sc21 [Example 119] | + | −
F[C@@H]1CCCN(c2ccc(-c3nc4ncc(N5CCOCC5)cc4s3)cn2)C1 [Example 123] | + | +
O=C1COCCN1c1ccc2nc(-c3cnn(CCF)c3)sc2c1 [Example 125] | + | +
O=C1CN(CCF)CCN1c1ccc2nc(-c3ccc(N4CCCC4)nc3)sc2c1 [Example 128] | ++ | ++
O=C1c2sc(-c3ccc(N4CC[C@@H](F)C4)nc3)nc2CCN1c1cccnc1 [Example 129] | ++ | +++
O=C1c2sc(-c3ccc(N4CC[C@H](F)C4)nc3)nc2CCN1c1cccnc1 [Example 130] | ++ | +++
N#Cc1ccc2sc(-c3ccc(N4CCCC4)nc3F)nc2n1 [Example 131] | ++ | +++
F[C@H]1CCCN(c2ccc(-c3nc4nc(-n5ccnc5)ccc4s3)cn2)C1 [Example 132] | ++ | +/−
